#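 Five concentrations, 48 hours, 96-well plates. GI50 is the concentration that inhibits growth by half.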 The source made the active and inactive calls. Rule as the data show it: active = GI50 up to about 1.1 µM and inactive = higher.
# Tests used:
# Assay in all cases: DTP human tumour cell line panel, 48 h
# UACC-257 = test system: UACC-257
# KM12 = test system: KM12
# HCT-116 = test system: HCT-116
# EKVX = test system: EKVX
# Hs-578T = test system: Hs-578T
# ACHN = test system: ACHN
# HCT-15 = test system: HCT-15
# MOLT-4 = test system: MOLT-4
# NCI/ADR-RES = test system: NCI/ADR-RES
# CCRF-CEM = test system: CCRF-CEM
# SNB-19 = test system: SNB-19
# COLO 205 = test system: COLO 205
# SR = test system: SR
# TK-10 = test system: TK-10
# LOX IMVI = test system: LOX IMVI
# DU-145 = test system: DU-145
# OVCAR-4 = test system: OVCAR-4
# UACC-62 = test system: UACC-62
# BT-549 = test system: BT-549
Compound,GI50 (UACC-257),GI50 (KM12),GI50 (HCT-116),GI50 (EKVX),GI50 (Hs-578T),GI50 (ACHN),GI50 (HCT-15) [µM],GI50 (MOLT-4),GI50 (NCI/ADR-RES),GI50 (CCRF-CEM),GI50 (SNB-19),GI50 (COLO 205),GI50 (SR),GI50 (TK-10),GI50 (LOX IMVI),GI50 (DU-145),GI50 (OVCAR-4),GI50 (UACC-62),GI50 (BT-549)
CCCC1(CCC)c2cc(/C=N\O)ccc2-c2ccc(-c3ccc(C(C)(C)C)cc3)cc21,93.1 µM (inactive),55.3 µM (inactive),22.6 µM (inactive),56.8 µM (inactive),88.3 µM (inactive),41.9 µM (inactive),> 100,23.4 µM (inactive),53.8 µM (inactive),29.2 µM (inactive),> 100 µM (inactive),> 100 µM (inactive),25.9 µM (inactive),39 µM (inactive),32.7 µM (inactive),> 100 µM (inactive),> 100 µM (inactive),,
CC(C)(C)C(O)CC(O)(C(F)(F)F)C(F)(F)F (stereo not given),> 100 µM (inactive),> 100 µM (inactive),> 100 µM (inactive),> 100 µM (inactive),> 100 µM (inactive),> 100 µM (inactive),> 100,> 100 µM (inactive),> 100 µM (inactive),> 100 µM (inactive),> 100 µM (inactive),> 100 µM (inactive),> 100 µM (inactive),> 100 µM (inactive),> 100 µM (inactive),> 100 µM (inactive),> 100 µM (inactive),> 100 µM (inactive),
CC(C)=NNC1=NC(C)(C)P(=O)(NNc2ncccn2)S1 (stereo not given),> 100 µM (inactive),,> 100 µM (inactive),> 100 µM (inactive),> 100 µM (inactive),> 100 µM (inactive),> 100,> 100 µM (inactive),,,> 100 µM (inactive),,,> 100 µM (inactive),,> 100 µM (inactive),> 100 µM (inactive),> 100 µM (inactive),> 100 µM (inactive)
CN1CN(c2ccccc2)C2(CCN(CC(C)(c3ccc(F)cc3)C3OCCCO3)CC2)C1=O (stereo not given),16 µM (inactive),15.5 µM (inactive),14.9 µM (inactive),16.7 µM (inactive),,17.7 µM (inactive),15.3,9.71 µM (inactive),12.9 µM (inactive),13 µM (inactive),17.3 µM (inactive),17.7 µM (inactive),10 µM (inactive),15.5 µM (inactive),17.5 µM (inactive),27.6 µM (inactive),,17.9 µM (inactive),5.31 µM (inactive)
Cc1cc(Cl)ccc1C1OC(=O)c2c1ccc1ccccc21 (stereo not given),> 100 µM (inactive),> 100 µM (inactive),> 100 µM (inactive),> 100 µM (inactive),,> 100 µM (inactive),> 100,> 100 µM (inactive),,> 100 µM (inactive),> 100 µM (inactive),> 100 µM (inactive),,> 100 µM (inactive),> 100 µM (inactive),,23.6 µM (inactive),> 100 µM (inactive),
COc1ccc(CN2CCC/C=C/CC(Cl)(Cl)C2=O)cc1,,36.6 µM (inactive),31.3 µM (inactive),,,21 µM (inactive),34.2,22.8 µM (inactive),,35.5 µM (inactive),25.2 µM (inactive),20.4 µM (inactive),24.1 µM (inactive),29.7 µM (inactive),39.3 µM (inactive),,23 µM (inactive),43 µM (inactive),
N#Cc1nc(-c2ccccn2)oc1N,> 100 µM (inactive),> 100 µM (inactive),> 100 µM (inactive),> 100 µM (inactive),> 100 µM (inactive),> 100 µM (inactive),> 100,> 100 µM (inactive),,> 100 µM (inactive),> 100 µM (inactive),> 100 µM (inactive),> 100 µM (inactive),> 100 µM (inactive),> 100 µM (inactive),> 100 µM (inactive),> 100 µM (inactive),> 100 µM (inactive),> 100 µM (inactive)
COc1ccc(C2C3=CONC3CC3CCCCC32)cc1 (stereo not given),80.2 µM (inactive),,29.8 µM (inactive),,,51.5 µM (inactive),,18.9 µM (inactive),,42.1 µM (inactive),92.7 µM (inactive),,41.9 µM (inactive),> 100 µM (inactive),69.7 µM (inactive),,50.4 µM (inactive),70.1 µM (inactive),> 100 µM (inactive)
CC(C)CC1C(=O)NCCC(NC(=O)C(Cc2ccc(OC(C)(C)C)cc2)NC(=O)OC(C)(C)C)C(=O)NC(Cc2ccccc2)C(=O)NC(Cc2ccccc2)NC1=O (stereo not given),12.1 µM (inactive),43.6 µM (inactive),4.05 µM (inactive),4.89 µM (inactive),13.4 µM (inactive),7.89 µM (inactive),> 100,1.51 µM (inactive),> 100 µM (inactive),4.3 µM (inactive),14.4 µM (inactive),3.32 µM (inactive),13.2 µM (inactive),11.7 µM (inactive),4.6 µM (inactive),59.4 µM (inactive),14.9 µM (inactive),6.35 µM (inactive),

# Reference: ChEMBL document CHEMBL1201862, “PubChem BioAssay data set” (2004)
